Patent US9580444B2, “Polycyclic pyrazolinone derivative and herbicide comprising same as effective component thereof” (priority 2013, dated 2017)

The compounds below were run on Cyperus difformis (smallflower umbrella plant) (assay: Test Example-1: herbicidal effect by a treatment before weeds are generated under submerged conditions). Conditions: 500 g a.i/ha, pre-emergence treatment, about 15 days after treatment, score 0-5.
Assay type: in vivo
How it was run: (§1)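 Paddy soil in cups was puddled, seeded with the weeds and kept flooded; compound as wettable powder or emulsifiable concentrate was diluted and applied into the water on the seeding day at a set dosage. Effect was scored about 15 days later on a 0–5 scale.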

| SMILES | Herbicidal effect Cyperus difformis |
| --- | --- |
| C#CCOc1cc(Cl)ccc1Oc1cc(-c2c(Cl)n3n(c2=O)CCCC3)c(F)cc1Cl [Compound 3-39] | 5 (Herbicidal effect/phytotoxicity was 90% or greater) |
| C=C(C)COc1cc(-c2c(Cl)n3n(c2=O)CCCC3)c(F)cc1F [Example 1-109] | 5 (Herbicidal effect/phytotoxicity was 90% or greater) |
| COC(=O)C(C)Oc1cc(-c2c(Cl)n3n(c2=O)CCCC3)c(F)cc1Cl (stereo not drawn) [Example 1-166] | 5 (Herbicidal effect/phytotoxicity was 90% or greater) |
| CC(C)Oc1ccc(Oc2cc(-c3c(Cl)n4n(c3=O)CCCC4)c(F)cc2Cl)cc1 [Compound 3-13] | 5 (Herbicidal effect/phytotoxicity was 90% or greater) |
| COC(=O)C(Cl)Cc1cc(-c2c(Cl)n3n(c2=O)CCCC3)c(F)cc1Cl (stereo not drawn) [Example 1-257] | 5 (Herbicidal effect/phytotoxicity was 90% or greater) |
| O=c1c(-c2cc(Oc3c(F)cc(C(F)(F)F)cc3Cl)c(F)cc2F)c(Cl)n2n1CCCC2 [Example 1-340] | 5 (Herbicidal effect/phytotoxicity was 90% or greater) |
| C=C(C)COC(=O)C=C(COc1cc(-c2c(Cl)n3n(c2=O)CCCC3)c(F)cc1Cl)OCCC [Compound 2-33] | 5 (Herbicidal effect/phytotoxicity was 90% or greater) |
| C#CCOc1cc(-c2c(F)n3n(c2=O)CCCCC3)c(Cl)cc1Cl [Example 1-361] | 5 (Herbicidal effect/phytotoxicity was 90% or greater) |

The compounds below were run on Echinochloa oryzicola (barnyard grass) in the same assay as above. Conditions: 500 g a.i/ha, pre-emergence treatment, about 15 days after treatment, score 0-5.
Assay type: in vivo
How it was run: as §1

| SMILES | Herbicidal effect Echinochloa oryzicola |
| --- | --- |
| C#CCOc1cc(Cl)ccc1Oc1cc(-c2c(Cl)n3n(c2=O)CCCC3)c(F)cc1Cl [Compound 3-39] | 5 (Herbicidal effect/phytotoxicity was 90% or greater) |
| C=C(C)COc1cc(-c2c(Cl)n3n(c2=O)CCCC3)c(F)cc1F [Example 1-109] | 5 (Herbicidal effect/phytotoxicity was 90% or greater) |
| COC(=O)C(C)Oc1cc(-c2c(Cl)n3n(c2=O)CCCC3)c(F)cc1Cl (stereo not drawn) [Example 1-166] | 5 (Herbicidal effect/phytotoxicity was 90% or greater) |
| CC(C)Oc1ccc(Oc2cc(-c3c(Cl)n4n(c3=O)CCCC4)c(F)cc2Cl)cc1 [Compound 3-13] | 5 (Herbicidal effect/phytotoxicity was 90% or greater) |
| COC(=O)C(Cl)Cc1cc(-c2c(Cl)n3n(c2=O)CCCC3)c(F)cc1Cl (stereo not drawn) [Example 1-257] | 5 (Herbicidal effect/phytotoxicity was 90% or greater) |
| O=c1c(-c2cc(Oc3c(F)cc(C(F)(F)F)cc3Cl)c(F)cc2F)c(Cl)n2n1CCCC2 [Example 1-340] | 5 (Herbicidal effect/phytotoxicity was 90% or greater) |
| C=C(C)COC(=O)C=C(COc1cc(-c2c(Cl)n3n(c2=O)CCCC3)c(F)cc1Cl)OCCC [Compound 2-33] | 5 (Herbicidal effect/phytotoxicity was 90% or greater) |
| C#CCOc1cc(-c2c(F)n3n(c2=O)CCCCC3)c(Cl)cc1Cl [Example 1-361] | 5 (Herbicidal effect/phytotoxicity was 90% or greater) |

The compounds below were run on Eleocharis acicularis (needle spikerush) in the same assay as above. Conditions: 500 g a.i/ha, pre-emergence treatment, about 15 days after treatment, score 0-5.
Assay type: in vivo
How it was run: as §1

| SMILES | Herbicidal effect Eleocharis acicularis |
| --- | --- |
| C#CCOc1cc(Cl)ccc1Oc1cc(-c2c(Cl)n3n(c2=O)CCCC3)c(F)cc1Cl [Compound 3-39] | 5 (Herbicidal effect/phytotoxicity was 90% or greater) |
| C=C(C)COc1cc(-c2c(Cl)n3n(c2=O)CCCC3)c(F)cc1F [Example 1-109] | 5 (Herbicidal effect/phytotoxicity was 90% or greater) |
| COC(=O)C(C)Oc1cc(-c2c(Cl)n3n(c2=O)CCCC3)c(F)cc1Cl (stereo not drawn) [Example 1-166] | 5 (Herbicidal effect/phytotoxicity was 90% or greater) |
| CC(C)Oc1ccc(Oc2cc(-c3c(Cl)n4n(c3=O)CCCC4)c(F)cc2Cl)cc1 [Compound 3-13] | 5 (Herbicidal effect/phytotoxicity was 90% or greater) |
| COC(=O)C(Cl)Cc1cc(-c2c(Cl)n3n(c2=O)CCCC3)c(F)cc1Cl (stereo not drawn) [Example 1-257] | 5 (Herbicidal effect/phytotoxicity was 90% or greater) |
| O=c1c(-c2cc(Oc3c(F)cc(C(F)(F)F)cc3Cl)c(F)cc2F)c(Cl)n2n1CCCC2 [Example 1-340] | 5 (Herbicidal effect/phytotoxicity was 90% or greater) |
| C=C(C)COC(=O)C=C(COc1cc(-c2c(Cl)n3n(c2=O)CCCC3)c(F)cc1Cl)OCCC [Compound 2-33] | 5 (Herbicidal effect/phytotoxicity was 90% or greater) |
| C#CCOc1cc(-c2c(F)n3n(c2=O)CCCCC3)c(Cl)cc1Cl [Example 1-361] | 5 (Herbicidal effect/phytotoxicity was 90% or greater) |

The compounds below were run on Monochoria vaginalis (monochoria) in the same assay as above. Conditions: 500 g a.i/ha, pre-emergence treatment, about 15 days after treatment, score 0-5.
Assay type: in vivo
How it was run: as §1

| SMILES | Herbicidal effect Monochoria vaginalis |
| --- | --- |
| C#CCOc1cc(Cl)ccc1Oc1cc(-c2c(Cl)n3n(c2=O)CCCC3)c(F)cc1Cl [Compound 3-39] | 5 (Herbicidal effect/phytotoxicity was 90% or greater) |
| C=C(C)COc1cc(-c2c(Cl)n3n(c2=O)CCCC3)c(F)cc1F [Example 1-109] | 5 (Herbicidal effect/phytotoxicity was 90% or greater) |
| COC(=O)C(C)Oc1cc(-c2c(Cl)n3n(c2=O)CCCC3)c(F)cc1Cl (stereo not drawn) [Example 1-166] | 5 (Herbicidal effect/phytotoxicity was 90% or greater) |
| CC(C)Oc1ccc(Oc2cc(-c3c(Cl)n4n(c3=O)CCCC4)c(F)cc2Cl)cc1 [Compound 3-13] | 5 (Herbicidal effect/phytotoxicity was 90% or greater) |
| COC(=O)C(Cl)Cc1cc(-c2c(Cl)n3n(c2=O)CCCC3)c(F)cc1Cl (stereo not drawn) [Example 1-257] | 5 (Herbicidal effect/phytotoxicity was 90% or greater) |
| O=c1c(-c2cc(Oc3c(F)cc(C(F)(F)F)cc3Cl)c(F)cc2F)c(Cl)n2n1CCCC2 [Example 1-340] | 5 (Herbicidal effect/phytotoxicity was 90% or greater) |
| C=C(C)COC(=O)C=C(COc1cc(-c2c(Cl)n3n(c2=O)CCCC3)c(F)cc1Cl)OCCC [Compound 2-33] | 5 (Herbicidal effect/phytotoxicity was 90% or greater) |
| C#CCOc1cc(-c2c(F)n3n(c2=O)CCCCC3)c(Cl)cc1Cl [Example 1-361] | 5 (Herbicidal effect/phytotoxicity was 90% or greater) |

The compounds below were run on Scirpus juncoides (bulrush) in the same assay as above. Conditions: 500 g a.i/ha, pre-emergence treatment, about 15 days after treatment, score 0-5.
Assay type: in vivo
How it was run: as §1

| SMILES | Herbicidal effect Scirpus juncoides |
| --- | --- |
| C#CCOc1cc(Cl)ccc1Oc1cc(-c2c(Cl)n3n(c2=O)CCCC3)c(F)cc1Cl [Compound 3-39] | 5 (Herbicidal effect/phytotoxicity was 90% or greater) |
| C=C(C)COc1cc(-c2c(Cl)n3n(c2=O)CCCC3)c(F)cc1F [Example 1-109] | 5 (Herbicidal effect/phytotoxicity was 90% or greater) |
| COC(=O)C(C)Oc1cc(-c2c(Cl)n3n(c2=O)CCCC3)c(F)cc1Cl (stereo not drawn) [Example 1-166] | 5 (Herbicidal effect/phytotoxicity was 90% or greater) |
| CC(C)Oc1ccc(Oc2cc(-c3c(Cl)n4n(c3=O)CCCC4)c(F)cc2Cl)cc1 [Compound 3-13] | 5 (Herbicidal effect/phytotoxicity was 90% or greater) |
| COC(=O)C(Cl)Cc1cc(-c2c(Cl)n3n(c2=O)CCCC3)c(F)cc1Cl (stereo not drawn) [Example 1-257] | 5 (Herbicidal effect/phytotoxicity was 90% or greater) |
| O=c1c(-c2cc(Oc3c(F)cc(C(F)(F)F)cc3Cl)c(F)cc2F)c(Cl)n2n1CCCC2 [Example 1-340] | 5 (Herbicidal effect/phytotoxicity was 90% or greater) |
| C=C(C)COC(=O)C=C(COc1cc(-c2c(Cl)n3n(c2=O)CCCC3)c(F)cc1Cl)OCCC [Compound 2-33] | 5 (Herbicidal effect/phytotoxicity was 90% or greater) |
| C#CCOc1cc(-c2c(F)n3n(c2=O)CCCCC3)c(Cl)cc1Cl [Example 1-361] | 5 (Herbicidal effect/phytotoxicity was 90% or greater) |

What follows are compounds tested on other annual broad leaf weeds (Lindernia procumbens, Rotala indica, Elatine triandra) in the same assay as above. Conditions: 500 g a.i/ha, pre-emergence treatment, about 15 days after treatment, score 0-5.
Assay type: in vivo
How it was run: as §1

| SMILES | Herbicidal effect Broadleaf weed |
| --- | --- |
| C#CCOc1cc(Cl)ccc1Oc1cc(-c2c(Cl)n3n(c2=O)CCCC3)c(F)cc1Cl [Compound 3-39] | 5 (Herbicidal effect/phytotoxicity was 90% or greater) |
| C=C(C)COc1cc(-c2c(Cl)n3n(c2=O)CCCC3)c(F)cc1F [Example 1-109] | 5 (Herbicidal effect/phytotoxicity was 90% or greater) |
| COC(=O)C(C)Oc1cc(-c2c(Cl)n3n(c2=O)CCCC3)c(F)cc1Cl (stereo not drawn) [Example 1-166] | 5 (Herbicidal effect/phytotoxicity was 90% or greater) |
| CC(C)Oc1ccc(Oc2cc(-c3c(Cl)n4n(c3=O)CCCC4)c(F)cc2Cl)cc1 [Compound 3-13] | 5 (Herbicidal effect/phytotoxicity was 90% or greater) |
| COC(=O)C(Cl)Cc1cc(-c2c(Cl)n3n(c2=O)CCCC3)c(F)cc1Cl (stereo not drawn) [Example 1-257] | 5 (Herbicidal effect/phytotoxicity was 90% or greater) |
| O=c1c(-c2cc(Oc3c(F)cc(C(F)(F)F)cc3Cl)c(F)cc2F)c(Cl)n2n1CCCC2 [Example 1-340] | 5 (Herbicidal effect/phytotoxicity was 90% or greater) |
| C=C(C)COC(=O)C=C(COc1cc(-c2c(Cl)n3n(c2=O)CCCC3)c(F)cc1Cl)OCCC [Compound 2-33] | 5 (Herbicidal effect/phytotoxicity was 90% or greater) |
| C#CCOc1cc(-c2c(F)n3n(c2=O)CCCCC3)c(Cl)cc1Cl [Example 1-361] | 5 (Herbicidal effect/phytotoxicity was 90% or greater) |
